Data set [1] is described as follows: in vitro. Particulars: mouse, plasma.
Data set [2] can be described thus: Hepatocyte stability test, dog. The format is in vitro ADME. Particulars: male, beagle, cryopreserved hepatocytes, pH 7.4, read-out: Hepatocyte stability (% remaining after 3 h). Here is the method: (§1) Hepatocyte incubations for the test compound (10 μM final concentration, n = 2 per each time point) were carried out in mouse, rat, dog, monkey and human cryopreserved hepatocytes, resuspended at a density of 0.5 million cells/ml of modified Krebs-Henseleit buffer (KHB). The information regarding the hepatocytes used in the experiment is as follows: liverPool® 10-donor mixed gender human (BioIVT, Cat.No. X008001, lot EAV), male cynomolgus monkey (BioIVT, Cat.No. M00305, lot COJ), male Beagle dog (BioIVT, Cat.No. M00205, lot USY), male Sprague Dawley rat (BioIVT, Cat.No. M00005, lot TQE) and male CD1 mouse (BioIVT, Cat.No.005052, lot LFF). In addition, the compound was also incubated with blank KHB. The final concentration of solvent (DMSO) was 0.1% of the final volume. The incubations were performed for 3 hours at 37°C and pH 7.4. Reactions were terminated at 0 and 180 minutes by the addition of 3 volumes of stop solution (acetonitrile/methanol (2:1, v/v) containing internal standard–diclofenac at 100 ng/ml). Samples (compound spiked buffer and compound spiked hepatocytes, as well as blank samples, i.e. hepatocytes with the same DMSO%) were then centrifuged and aliquots were transferred to 96-deep micronic tubes and frozen at -80 °C until LC-MS/MS analysis. […]

Another data set addresses T1, 5HT1D (Rattus norvegicus, UniProt P28565).
T1 construct: host or cells: CHO cells
Description: 5HT subtype antagonism assay (Eurofins Cerep): 5HT1D. The format is cell-based. The conditions noted are these: concentration not given. Here is the method: The derivatives were evaluated at a concentration of 1 μM for their antagonist activity on the 5HT2A receptor (Tables 1–3)[33],[34]. Human 5HT2A stably transfected HEK293 cells (a type of cell derived from kidney embryos)[20] were seeded in a 96-well plate (Costar; 3603) at a density of 9 × 10^4 in 100 μL of minimum essential medium (Welgene; LM007-86) containing 10% dialyzed fetal bovine serum (Gibco; 30067–334) and 1% penicillin/streptomycin (Gibco; 15140-122) and kept in a 37 °C incubator for 24 h. The cells were stained with 100 μL of cytosolic calcium dye using the FLIPR calcium 6 assay solution (Molecular devices, #R8190) supplemented with 2.5 mM probenecid (Sigma; P8761) and incubated for 1 h at 37 °C. After 1 h, the designated amount of the compound was treated in each well and incubated for another 1 h at 37 °C. Then, the cells were loaded in a Flexstation 3 microplate reader (Molecular Devices; FlexStaion) and 50 μL of 5 μM 5HT (serotonin hydrochloride, Sigma; H9523) was injected from a source plate (Nunc 96-well polystyrene conical bottom MicroWell Plate, Thermo; 249662) and the fluorescence intensity (Ex/Em-485nm/ 525 nm) was measured. […]
Antagonism assay Source Stimulus Incubation Measured Detection Method […]

The test system of data set [3] is CDAHFD-fed C57BL/6 J mice. As to the kind of experiment: CDAHFD mice: food intake. The format is in vivo, mouse. Particulars: amongst CDAHFD-fed groups, 12 weeks. The source says:
C57BL/6 J male mice were purchased from the Japan SLC. Inc (Hamamatsu, Japan). Mice (5 weeks old) were fed Teklad Certitied Irradiated Global 18% protein rodent diet purchased from Dooyeol Biotech Co. Ltd (Seoul, South Korea) during the acclimation period. The liver fibrosis/inflammation-induced groups were CDAHFD-fed (A06071302, Research diet). […] All animal experiments complied with the relevant ethical regulations.
Supplementary Figure 4. Food intake. Food intake of vehicle and CDAHFD-fed mice, two-way
ANOVA with the Holm-Sidak post hoc test. The data are presented as mean ± SD (n = 2 cages per
(1 picture or pasted object on this page, not shown here)

Data set [4] can be described thus: in vitro. The conditions noted are these: human, plasma.
A short description of data set [5]: Hepatocyte stability test, rat. It is filed as in vitro ADME. The conditions noted are these: male, Sprague Dawley, cryopreserved hepatocytes, pH 7.4, read-out: Hepatocyte stability (% remaining after 3 h). The method, then: as §1

The term fraction remaining denotes what is left of the initial amount, in per cent.

T1 sequence (P28565 whole entry): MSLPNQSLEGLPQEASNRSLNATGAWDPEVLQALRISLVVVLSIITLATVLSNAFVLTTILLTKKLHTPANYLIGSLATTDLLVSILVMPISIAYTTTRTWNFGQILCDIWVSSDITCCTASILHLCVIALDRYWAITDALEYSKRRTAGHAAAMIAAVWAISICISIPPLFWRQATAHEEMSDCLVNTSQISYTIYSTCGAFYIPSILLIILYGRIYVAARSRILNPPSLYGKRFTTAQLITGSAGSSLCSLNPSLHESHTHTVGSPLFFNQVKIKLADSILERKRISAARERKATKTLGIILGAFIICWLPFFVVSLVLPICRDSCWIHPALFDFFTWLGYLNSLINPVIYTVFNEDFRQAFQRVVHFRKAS

On to `Cc1nc2n(c(=O)c1CCN1CCC(=C3c4ccc(Cl)cc4CCc4cccnc43)CC1)CCCC2O` (stereo not drawn) [Compound 11c], for which the share remaining at 4 h in “in vitro [1]” was over 99.9%; in the data set “in vitro [4]”, over 98.6%. In addition, the results for the share remaining at 3 h, 10 μM in data set [2] and in data set [5] were 88.5% and 68.9%, respectively. For the same compound, the “Selectivity 1D: % inhibition” value at 5HT1D came out at 3%. Moreover, the food intake entry in data set [3] was “no significant difference”.
